Measurements reported in paper PMC12333026, “Versatile Imidazole Scaffold with Potent Activity against Multiple Apicomplexan Parasites” (ACS Infectious Diseases, 2025).
Where two headings read alike, the source gives them in different places.

Experiments:
PfPKG T618Q = PfPKG T618Q (Plasmodium falciparum, UniProt Q8I719, T618Q); assay: PfPKG enzyme activity assay, T618Q gatekeeper mutant; assay type: biochemical, P. falciparum
Procedure: (§1) Direct inhibition of recombinant PfPKG phosphorylation activity was carried out using a previously described nonradioactive assay. The assay evaluates PfPKG activity based on changes in initial ATP concentration via luminescence after enzyme phosphorylation of peptide substrate PKCtide ([…]) (SignalChem, Richmond, BC Canada). Enzyme kinase activity was measured in the presence of 26 μM PKCtide; 50.1 nM PfPKG; and 20 μM cGMP in a buffered solution containing 20 mM β-glycerol-phosphate, 20 mM MgCl2, 25 mM HEPES pH 7.5 (KOH), 0.1% BSA and 2 mM DTT. The reaction was activated by the addition of 10 μM ATP with incubation at 30 °C and 90 rpm agitation for 120 min. […] Each assay plate contained reaction wells with no enzyme, no PKCtide peptide substrate and no cGMP as internal controls.

[1] = test system: P. falciparum T618Q asexual stage parasites; assay: Growth inhibition assay, asexual stage parasites expressing PfPKG T618Q; assay type: cell-based; details: Plasmodium falciparum, 72 h, read-out: P. falciparum EC50 (±SD) T618Q
Procedure: (§2) lines were maintained with O+ human erythrocytes (BioIVT). WT 3D7A10 and T618Q parasites were kind gifts from Dr. David Fidock (Columbia University) and Dr. David Baker (London School of Tropical Medicine and Hygiene), respectively. Growth inhibition assays were performed as previously described. Parasites were grown in RPMI 1640 medium (Sigma-Aldrich, St. Louis, MO, U.S.A.) supplemented with 5 mg/mL Albumax (Gibco), 50 μg/mL hypoxanthine (Sigma-Aldrich), 2 mg/mL Na2CO3 (Sigma-Aldrich), 25 mM HEPES, and 50 μg/mL gentamicin (Gibco). The growth assay was initiated with cultures with >80% ring stage parasites, diluted to a parasitemia of 0.4% and a hematocrit of 1%. Parasites were transferred to a 96-well plate with test compounds, vehicle, or DHA as positive control, and maintained for 72 h in 5% CO2, 5% O2, and 90% N2 in a humidified chamber. Parasite viability at 72 h was determined by addition of SYBR Green I nucleic acid stain (Thermo Fisher Scientific, S7563) and Mitotracker Deep Red (Fisher M422426) followed by flow cytometry on a BD FACSVerse using BD FACSuite software. Data acquired were analyzed using Flowjo software. EC50 values were derived by nonlinear regression in Graph Pad Prism 7.

[2] = test system: T. gondii RH strain expressing β-galactosidase, parental; assay: Proliferation EC50, β-galactosidase readout, parental strain; assay type: cell-based; details: Toxoplasma gondii, 72 h, read-out: T. gondii EC50 (±SD) CONTROL
PfPKG = PfPKG (Plasmodium falciparum, UniProt Q8I719); assay: PfPKG enzyme activity assay, recombinant WT; assay type: biochemical; details: recombinant enzyme; ADP-Glo assay; mean ± SD, n = 2–3 experiments; read-out: enzyme IC50 (±SD) PfPKG WT
Procedure: as §1

CpCDPK1-G152M = target: T1, CpCDPK1-G152M (Cryptosporidium parvum, UniProt A3FQ16, G152M); assay: CDPK enzyme activity assay, CpCDPK1 G152M; assay type: biochemical, C. parvum
T1 construct: made in house
Procedure: (§3) Recombinant expression of PfCDPK1, PfCDPK4, TgCDPK1 WT, TgCDPK1-G128M, CpCDPK1 and CpCDPK1-G152 M were purified as previously described. […] These reactions were performed in a buffer composed of 1 mM EGTA (pH 7.2), 10 mM MgCl2, 20 mM HEPES pH 7.5 (KOH), 0.1% BSA. The reactions were initiated with addition of 10 μM ATP and 2 mM CaCl2 as enzyme activation reagent. Reaction plates were incubated for 90 min with 90 rpm agitation at 30 °C. […] KinaseGlo (Promega) luminescence-based assay in which luminescence is inversely related to kinase activity and […] was used as previously described.

TgCDPK1 WT = target: T2, TgCDPK1 WT (Toxoplasma gondii, UniProt Q9BJF5); assay: biochemical
T2 sequence (Q9BJF5 1-507): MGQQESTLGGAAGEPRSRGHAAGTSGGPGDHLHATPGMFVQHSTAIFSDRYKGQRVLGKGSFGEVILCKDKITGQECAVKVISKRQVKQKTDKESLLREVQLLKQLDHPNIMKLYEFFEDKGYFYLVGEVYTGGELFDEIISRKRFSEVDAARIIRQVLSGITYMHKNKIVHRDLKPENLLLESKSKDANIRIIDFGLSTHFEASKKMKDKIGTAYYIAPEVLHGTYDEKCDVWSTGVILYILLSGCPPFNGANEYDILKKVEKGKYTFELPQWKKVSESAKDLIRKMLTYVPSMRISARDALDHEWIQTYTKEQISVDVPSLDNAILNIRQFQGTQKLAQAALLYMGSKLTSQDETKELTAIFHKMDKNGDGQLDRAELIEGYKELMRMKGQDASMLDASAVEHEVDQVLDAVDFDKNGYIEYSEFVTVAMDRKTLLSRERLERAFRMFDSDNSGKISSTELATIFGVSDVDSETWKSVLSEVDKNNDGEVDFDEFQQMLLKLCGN
Procedure: as §3

CpCDPK1 = target: T3, CpCDPK1 (Cryptosporidium parvum, UniProt A3FQ16); assay: CDPK enzyme activity assay, CpCDPK1 WT; assay type: biochemical, C. parvum
T3 construct: made in house
Procedure: as §3

[3] = test system: T. gondii RH strain with L162Q substitution in TgMAPKL1; assay: Proliferation EC50, β-galactosidase readout, TgMAPKL1 L162Q; assay type: cell-based
Procedure: (§4) Human Foreskin Fibroblasts (HFF) were cultured in DMEM, with D-glucose (4.5 g/L), L-glutamine, and sodium pyruvate (110 mg/L) (Gibco) that were further supplemented with 10% Fetal Clone 1 serum (FCS)(HyClone), 50 U/mL penicillin (Gibco), […] streptomycin (Gibco), and 1× GlutaMax (Gibco). HFF cells were cultured in T25 flasks (Corning) in a humidified incubator at 37 °C and 5% CO2. For culture, media was replaced with DMEM, as described above, with 1% FCS. Mutant strains were created as described in.
An RH strain of with an L162Q substitution in TgMAPKL1 introduced by CRISPR/Cas9 site directed mutagenesis into a clone expressing β-galactosidase was used to determine the EC50s for proliferation. Compounds were dissolved in DMSO and serially diluted 4-fold across the first 11 columns of a 96 well plate from the highest concentration of 25 μM leaving the final column with no drugs. was added to the first 11 columns of the 96 well plate at 4000 parasites per well. The last column contained no compound. Plates were incubated 72 h at 37 °C and 5% CO2. were quantified by spectrophotometrically measuring the β-galactosidase concentration of each well after cell lysis and exposure to chlorophenol red β-galactopyranose (Sigma-Aldrich, St. Louis, MO) substrate. Each compound was tested at least three times in quadruplicate.

PfCDPK4 = target: T4, PfCDPK4 (Plasmodium falciparum, UniProt Q8IBS5); assay: CDPK enzyme activity assay, PfCDPK4; assay type: biochemical, P. falciparum
T4 construct: made in house
Procedure: as §3

[4] = test system: T. gondii tachyzoites expressing TgCDPK1 G128M; TgMAPKL-1 L162Q; assay: Proliferation EC50, host fibroblast nuclei count, double mutant; assay type: cell-based; details: Toxoplasma gondii, Fibroblast, read-out: T. gondii EC50 (±SD) CDPK1 G128M; MAPKL1 L162Q
Procedure: as §4
(§5) Presence of desired mutations in parasite lines, TgCDPK1^G128M, TgCDPK1^G128M + TgMAPKL1^L162Q and […] was verified through sequencing. Compounds were dissolved in DMSO and serially diluted 4-fold across the first 10 wells of a 96 well plate, with the highest drug concentration in the first column being 25 μM. The strain of was then added to the first 11 columns of the 96-well plate at a density of 4000 parasites per well. The 11th column contained no compounds, and the 12th column contained no parasites and no compound. After 5 days of incubation at 37 °C and 5% CO2, cells were washed with PBS and fixed with 4% PFA in PBS (Thermo Fisher Scientific, Waltham, MA, USA). After fixing, cells were washed three times with PBS and stained with 300 nM DAPI in PBS before being washed again three times with PBS.
(§6) Images were acquired in an ImageXpress Pico Automated Cell Imaging System (Molecular Devices, San Jose, CA, USA) with a 4× objective using UV fluorescence. Following imaging, ImageXpress software was used to count objects with a fluorescence intensity ≥8 and a size of 12–30 μm, giving a total count of host cell nuclei for each well. EC50 were determined based on the number of remaining fibroblast nuclei using a nonlinear regression analysis with GraphPad Prism software version 10.0.0 for Windows, GraphPad Software, Boston, Massachusetts USA. Each compound was tested in ≥3 experiments in quadruplicate rows.

[5] = test system: T. gondii tachyzoites expressing TgPKG T761Q; assay: Proliferation EC50, host fibroblast nuclei count, TgPKG T761Q mutant; assay type: cell-based
Procedure: as §4, §5, §6

[6] = test system: T. gondii tachyzoites expressing TgCDPK1 G128M; assay: Proliferation EC50, host fibroblast nuclei count, TgCDPK1 G128M mutant; assay type: cell-based
Procedure: as §4, §5, §6

PfCDPK1 = target: T5, PfCDPK1 (Plasmodium falciparum, UniProt P62344); assay: CDPK enzyme activity assay, PfCDPK1; assay type: biochemical, P. falciparum
T5 construct: made in house
Procedure: as §3

TgCDPK1-G128M = target: T6, TgCDPK1-G128M (Toxoplasma gondii, UniProt Q9BJF5, G128M); assay: CDPK enzyme activity assay, TgCDPK1 G128M; assay type: biochemical, T. gondii
T6 construct: made in house
Procedure: as §3

[7] = test system: T. gondii tachyzoites, parental control; assay: Proliferation EC50, host fibroblast nuclei count, parental control; assay type: cell-based; details: Toxoplasma gondii
Procedure: as §4, §5, §6

[8] = test system: P. falciparum 3D7 (WT) asexual stage parasites; assay: Growth inhibition assay, asexual stage parasites, WT 3D7; assay type: cell-based; details: Plasmodium falciparum; 3D7 asexual stage parasites, 72 h; mean ± SD, n = 1–2
Procedure: as §2

[9] = test system: strain UGA1 expressing nanoluciferase, replication in HCT-8 cells; assay: Growth inhibition assay in HCT-8 cells (nanoluciferase strain UGA1); assay type: cell-based, C. parvum; details: Cryptosporidium parvum, 48 h, nanoluciferase readout, (±SD), read-out: EC50 of replication measured in HCT-8 cells
Procedure: strain UGA1 transfected to express nanoluciferase (Nluc) and obtained from the University of Arizona after propagation in newborn calves. HCT-8 cells were added to a 384-well plate and allowed to grow for 48 h to reach 75–90% confluence. The medium was removed, and test compounds were added in serial dilutions prior to the addition of 1000 oocysts per well in RPMI 1640 medium supplemented with 10% heat inactivated FBS and 1% penicillin streptomycin. Plates were incubated for 48 h; Nano-Glo luciferase reagent (Promega, Madison, WI) was then added, and the plates were read on an EnVision multilabel plate reader (PerkinElmer, Waltham, MA). EC50 curves were calculated as previously described using Prism v6.07 (GraphPad Software, La Jolla, CA).

T1 sequence (A3FQ16 whole entry G152M): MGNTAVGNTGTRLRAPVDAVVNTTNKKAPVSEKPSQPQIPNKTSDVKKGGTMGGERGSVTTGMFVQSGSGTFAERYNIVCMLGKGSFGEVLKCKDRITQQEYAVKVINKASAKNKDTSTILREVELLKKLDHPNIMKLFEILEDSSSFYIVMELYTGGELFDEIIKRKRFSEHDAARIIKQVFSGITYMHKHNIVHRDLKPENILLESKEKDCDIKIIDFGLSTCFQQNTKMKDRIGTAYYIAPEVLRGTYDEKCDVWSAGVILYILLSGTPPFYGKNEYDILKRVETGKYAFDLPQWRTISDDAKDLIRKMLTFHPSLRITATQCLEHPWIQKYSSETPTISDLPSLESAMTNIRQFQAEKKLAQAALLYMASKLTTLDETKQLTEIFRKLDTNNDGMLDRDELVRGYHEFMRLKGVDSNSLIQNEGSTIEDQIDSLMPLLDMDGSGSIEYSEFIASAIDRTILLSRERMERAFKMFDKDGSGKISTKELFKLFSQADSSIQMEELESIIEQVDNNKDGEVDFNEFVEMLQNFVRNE
T6 sequence (Q9BJF5 whole entry G128M): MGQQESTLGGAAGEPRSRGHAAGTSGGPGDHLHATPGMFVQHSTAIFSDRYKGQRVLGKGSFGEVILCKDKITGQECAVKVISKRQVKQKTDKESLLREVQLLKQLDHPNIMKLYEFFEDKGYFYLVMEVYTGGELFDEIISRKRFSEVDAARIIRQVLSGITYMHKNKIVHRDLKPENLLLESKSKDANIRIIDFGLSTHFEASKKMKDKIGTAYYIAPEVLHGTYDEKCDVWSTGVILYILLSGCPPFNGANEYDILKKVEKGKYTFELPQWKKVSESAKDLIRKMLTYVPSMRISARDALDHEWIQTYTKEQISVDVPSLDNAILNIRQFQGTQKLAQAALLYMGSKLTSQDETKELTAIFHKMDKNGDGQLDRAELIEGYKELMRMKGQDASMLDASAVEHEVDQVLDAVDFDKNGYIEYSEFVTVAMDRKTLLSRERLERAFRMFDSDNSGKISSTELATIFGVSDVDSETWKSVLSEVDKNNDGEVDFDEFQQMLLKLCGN
T4 sequence (Q8IBS5 whole entry): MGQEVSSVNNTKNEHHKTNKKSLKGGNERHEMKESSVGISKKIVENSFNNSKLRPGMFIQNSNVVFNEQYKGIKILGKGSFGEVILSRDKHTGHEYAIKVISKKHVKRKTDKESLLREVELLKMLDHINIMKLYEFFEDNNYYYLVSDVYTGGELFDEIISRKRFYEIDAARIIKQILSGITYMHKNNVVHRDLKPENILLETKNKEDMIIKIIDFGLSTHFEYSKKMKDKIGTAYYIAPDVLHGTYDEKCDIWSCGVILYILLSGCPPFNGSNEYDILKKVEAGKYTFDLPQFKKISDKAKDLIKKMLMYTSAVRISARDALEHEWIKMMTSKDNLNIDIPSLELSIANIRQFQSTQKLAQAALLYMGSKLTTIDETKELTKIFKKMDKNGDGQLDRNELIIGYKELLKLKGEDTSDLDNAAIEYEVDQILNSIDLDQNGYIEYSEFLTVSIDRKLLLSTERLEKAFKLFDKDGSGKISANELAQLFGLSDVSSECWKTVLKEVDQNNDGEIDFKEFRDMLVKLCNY
Chain of PfPKG T618Q (Q8I719 whole entry T618Q): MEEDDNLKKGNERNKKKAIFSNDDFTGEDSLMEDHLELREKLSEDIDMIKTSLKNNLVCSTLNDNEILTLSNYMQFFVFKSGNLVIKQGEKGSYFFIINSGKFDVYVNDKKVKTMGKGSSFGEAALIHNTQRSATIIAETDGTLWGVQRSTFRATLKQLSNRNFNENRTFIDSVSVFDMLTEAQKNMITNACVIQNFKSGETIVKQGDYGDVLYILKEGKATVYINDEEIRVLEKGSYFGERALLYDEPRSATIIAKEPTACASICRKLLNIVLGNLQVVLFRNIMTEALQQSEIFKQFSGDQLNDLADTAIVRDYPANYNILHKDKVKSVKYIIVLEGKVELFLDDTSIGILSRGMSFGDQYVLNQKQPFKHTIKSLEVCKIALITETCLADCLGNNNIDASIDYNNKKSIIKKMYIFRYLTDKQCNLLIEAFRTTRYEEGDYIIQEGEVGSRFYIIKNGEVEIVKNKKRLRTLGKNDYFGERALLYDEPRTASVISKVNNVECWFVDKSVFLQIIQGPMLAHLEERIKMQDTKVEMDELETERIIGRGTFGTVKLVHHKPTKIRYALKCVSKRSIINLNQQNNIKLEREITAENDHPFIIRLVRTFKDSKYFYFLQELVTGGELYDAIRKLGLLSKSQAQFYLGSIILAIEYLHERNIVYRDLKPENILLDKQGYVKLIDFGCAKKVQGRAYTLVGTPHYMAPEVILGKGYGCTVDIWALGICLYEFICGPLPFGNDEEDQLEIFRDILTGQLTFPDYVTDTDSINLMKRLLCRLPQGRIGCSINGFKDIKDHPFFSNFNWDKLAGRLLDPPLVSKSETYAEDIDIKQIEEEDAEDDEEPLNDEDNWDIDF
Chain of PfPKG (Q8I719 whole entry): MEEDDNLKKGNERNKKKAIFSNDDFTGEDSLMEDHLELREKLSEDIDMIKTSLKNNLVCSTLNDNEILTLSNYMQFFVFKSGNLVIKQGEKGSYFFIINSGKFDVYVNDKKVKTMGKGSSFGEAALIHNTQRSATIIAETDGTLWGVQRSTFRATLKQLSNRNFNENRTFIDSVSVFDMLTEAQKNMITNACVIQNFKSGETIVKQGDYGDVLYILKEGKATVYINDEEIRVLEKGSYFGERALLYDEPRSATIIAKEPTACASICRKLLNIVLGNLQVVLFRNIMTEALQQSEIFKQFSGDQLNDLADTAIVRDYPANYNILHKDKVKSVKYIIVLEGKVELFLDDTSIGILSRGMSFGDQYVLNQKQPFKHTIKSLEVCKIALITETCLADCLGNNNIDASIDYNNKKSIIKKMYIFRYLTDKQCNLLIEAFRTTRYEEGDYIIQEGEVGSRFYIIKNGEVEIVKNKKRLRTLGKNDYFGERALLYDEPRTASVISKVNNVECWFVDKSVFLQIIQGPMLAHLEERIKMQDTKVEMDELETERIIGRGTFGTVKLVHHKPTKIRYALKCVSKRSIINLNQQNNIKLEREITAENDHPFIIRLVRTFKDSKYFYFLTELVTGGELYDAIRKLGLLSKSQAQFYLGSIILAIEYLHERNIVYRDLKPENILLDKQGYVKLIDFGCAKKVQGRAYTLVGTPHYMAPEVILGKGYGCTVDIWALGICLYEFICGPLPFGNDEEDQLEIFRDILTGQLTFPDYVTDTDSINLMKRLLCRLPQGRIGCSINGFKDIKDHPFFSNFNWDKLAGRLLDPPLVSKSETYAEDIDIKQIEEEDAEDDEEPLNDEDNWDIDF
T3 sequence (A3FQ16 1-538): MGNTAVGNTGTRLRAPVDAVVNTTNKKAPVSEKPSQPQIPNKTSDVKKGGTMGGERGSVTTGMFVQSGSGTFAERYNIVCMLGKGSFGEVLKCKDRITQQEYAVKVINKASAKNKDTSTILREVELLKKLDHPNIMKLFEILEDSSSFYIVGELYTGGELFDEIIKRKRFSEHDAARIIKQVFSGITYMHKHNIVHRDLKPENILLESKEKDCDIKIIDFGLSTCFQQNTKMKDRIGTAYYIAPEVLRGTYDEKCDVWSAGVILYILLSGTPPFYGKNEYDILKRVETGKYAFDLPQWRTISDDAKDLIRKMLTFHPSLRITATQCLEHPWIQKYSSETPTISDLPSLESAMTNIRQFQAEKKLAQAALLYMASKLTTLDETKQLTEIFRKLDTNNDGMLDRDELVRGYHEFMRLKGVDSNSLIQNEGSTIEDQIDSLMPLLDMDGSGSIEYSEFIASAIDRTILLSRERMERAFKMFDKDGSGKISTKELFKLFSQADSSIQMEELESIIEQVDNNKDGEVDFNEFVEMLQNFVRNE
T5 sequence (P62344 whole entry): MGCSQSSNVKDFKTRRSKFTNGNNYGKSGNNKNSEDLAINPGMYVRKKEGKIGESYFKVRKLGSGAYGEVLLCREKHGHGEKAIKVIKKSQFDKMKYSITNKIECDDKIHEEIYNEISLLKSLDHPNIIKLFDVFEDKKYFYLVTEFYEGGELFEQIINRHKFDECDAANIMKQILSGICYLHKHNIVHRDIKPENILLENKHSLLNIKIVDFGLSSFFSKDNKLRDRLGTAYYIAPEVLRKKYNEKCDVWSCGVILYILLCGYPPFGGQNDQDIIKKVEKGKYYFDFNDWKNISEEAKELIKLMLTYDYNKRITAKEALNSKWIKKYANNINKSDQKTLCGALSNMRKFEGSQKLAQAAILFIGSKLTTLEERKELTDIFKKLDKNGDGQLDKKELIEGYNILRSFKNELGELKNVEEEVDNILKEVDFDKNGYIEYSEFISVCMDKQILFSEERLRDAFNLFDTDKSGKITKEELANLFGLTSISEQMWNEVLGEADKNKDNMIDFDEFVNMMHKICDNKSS

Compound: O=C(c1nccs1)N1CC[C@@H](Nc2nccc(-n3cc(C4CC4)nc3-c3ccccc3)n2)C1 [(R)-RY-1-165]
- IC50 (PfPKG T618Q): > 10000 nM
- EC50 [1]: 13400 nM
- EC50 [2]: 530 nM
- IC50 (PfPKG): 240 nM
- IC50 (CpCDPK1-G152M): > 30000 nM
- CpCDPK1 G152M mutant enzyme less sensitive (CpCDPK1-G152M; G152M versus WT enzyme): at least 175 ×
- IC50 (TgCDPK1 WT): 50 nM
- IC50 for TgCDPK1 lower than for PfCDPK4 (TgCDPK1 WT; TgCDPK1 versus PfCDPK4, 90 min): over 30 fold
- IC50 (CpCDPK1): 170 nM
- increase in EC50 against TgMAPKL-1 L162Q parasites versus parental strain [3]: did not demonstrate a significant change in EC50
- EC50 ([3]; Toxoplasma gondii, 72 h, read-out: T. gondii EC50 (±SD) MAPKL1 L162Q): 560 nM
- IC50 (PfCDPK4): 1700 nM
- EC50 [4]: 1570 nM
- EC50 ([5]; Toxoplasma gondii, Fibroblast, read-out: T. gondii EC50 (±SD) PKGT761Q): 390 nM
- change in relative EC50, T761Q parasites versus parental controls ([5]; in 2 experiments): no change
- increase in EC50 against T761Q parasites relative to parental controls ([5]; in 3 experiments): 1.8–2.8 fold
- EC50 for G128M parasites higher compared to the parental strain ([6]; TgCDPK1 G128M versus parental): 1.7 fold
- EC50 ([6]; Toxoplasma gondii, Fibroblast, read-out: T. gondii EC50 (±SD) CDPK1 G128M): 1530 nM
- IC50 (PfCDPK1): 10100 nM
- IC50 (TgCDPK1-G128M): > 30000 nM
- TgCDPK1 G128M mutant enzyme less sensitive (TgCDPK1-G128M; G128M versus WT enzyme): at least 500 fold
- EC50 ([7]; read-out: T. gondii EC50 (±SD) CONTROL, tachyzoites, parental control of CDPK1 G128M, mean ± SD, n = 3–5): 860 nM
- EC50 ([7]; read-out: T. gondii EC50 (±SD) CONTROL, tachyzoites, parental control of PKG T761Q, mean ± SD, n = 3–5): 260 nM
- EC50 ([7]; read-out: T. gondii EC50 (±SD) CONTROL, tachyzoites, parental control of the double mutant, mean ± SD, n = 3–5): 540 nM
- EC50 [8]: 11000 nM
- EC50 [9]: 17900 nM
